Data taken from ChEMBL document CHEMBL5291721, “A preclinical secondary pharmacology resource illuminates target-adverse drug reaction associations of marketed drugs” (Nat Commun, 2023).

How the values were obtained:
[1] = target: T1, Alpha-1A adrenergic receptor (Homo sapiens, UniProt P35348); format: functional, cell-based
T1 sequence (P35348 whole entry): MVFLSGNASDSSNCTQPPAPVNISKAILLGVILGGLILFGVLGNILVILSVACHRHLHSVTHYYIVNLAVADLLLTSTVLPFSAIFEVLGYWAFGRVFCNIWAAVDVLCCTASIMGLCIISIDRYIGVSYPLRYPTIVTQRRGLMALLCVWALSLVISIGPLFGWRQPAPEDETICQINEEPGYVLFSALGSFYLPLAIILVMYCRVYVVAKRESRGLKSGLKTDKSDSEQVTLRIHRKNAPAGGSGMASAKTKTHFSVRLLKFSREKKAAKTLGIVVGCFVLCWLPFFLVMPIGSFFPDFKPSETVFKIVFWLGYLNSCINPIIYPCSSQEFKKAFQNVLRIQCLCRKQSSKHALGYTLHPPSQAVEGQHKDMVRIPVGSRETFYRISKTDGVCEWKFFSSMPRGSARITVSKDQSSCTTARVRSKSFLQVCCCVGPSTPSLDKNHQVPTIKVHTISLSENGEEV

[2] = target: Vascular endothelial growth factor receptor 2 (Homo sapiens, UniProt P35968); format: functional
[3] = target: T2, Thromboxane A2 receptor (Homo sapiens, UniProt P21731); format: functional, cell-based
T2 sequence (P21731 whole entry): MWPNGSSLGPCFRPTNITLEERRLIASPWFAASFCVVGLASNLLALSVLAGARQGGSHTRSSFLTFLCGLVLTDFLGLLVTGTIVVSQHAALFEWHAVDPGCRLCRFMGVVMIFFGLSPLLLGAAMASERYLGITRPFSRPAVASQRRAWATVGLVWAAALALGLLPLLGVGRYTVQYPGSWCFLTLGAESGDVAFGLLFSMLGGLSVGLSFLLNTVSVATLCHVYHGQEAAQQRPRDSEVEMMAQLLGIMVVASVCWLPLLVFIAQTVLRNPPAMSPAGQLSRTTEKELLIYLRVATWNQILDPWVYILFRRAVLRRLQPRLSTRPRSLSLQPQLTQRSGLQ

[4] = target: Histamine H3 receptor (Homo sapiens, UniProt Q9Y5N1)
[5] = target: T3, Neuropeptide Y receptor type 1 (Homo sapiens, UniProt P25929)
T3 sequence (P25929 whole entry): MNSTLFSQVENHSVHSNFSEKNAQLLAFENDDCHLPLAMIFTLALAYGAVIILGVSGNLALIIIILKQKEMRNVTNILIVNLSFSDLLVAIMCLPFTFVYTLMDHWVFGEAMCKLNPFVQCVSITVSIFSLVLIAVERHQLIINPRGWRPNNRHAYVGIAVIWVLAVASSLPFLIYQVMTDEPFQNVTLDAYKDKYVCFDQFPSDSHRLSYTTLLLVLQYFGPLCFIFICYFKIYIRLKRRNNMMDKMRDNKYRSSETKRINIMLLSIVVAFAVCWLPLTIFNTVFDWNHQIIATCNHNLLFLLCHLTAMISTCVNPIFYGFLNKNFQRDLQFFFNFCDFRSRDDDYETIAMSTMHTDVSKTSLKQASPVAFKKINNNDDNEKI

[6] = target: Muscarinic acetylcholine receptor M3 (Homo sapiens, UniProt P20309)
[7] = target: T1, Alpha-1A adrenergic receptor; format: functional, cell-based; remark: listed apart in the source
[8] = target: T4, Progesterone receptor (Homo sapiens, UniProt P06401); format: functional
T4 sequence (P06401 whole entry): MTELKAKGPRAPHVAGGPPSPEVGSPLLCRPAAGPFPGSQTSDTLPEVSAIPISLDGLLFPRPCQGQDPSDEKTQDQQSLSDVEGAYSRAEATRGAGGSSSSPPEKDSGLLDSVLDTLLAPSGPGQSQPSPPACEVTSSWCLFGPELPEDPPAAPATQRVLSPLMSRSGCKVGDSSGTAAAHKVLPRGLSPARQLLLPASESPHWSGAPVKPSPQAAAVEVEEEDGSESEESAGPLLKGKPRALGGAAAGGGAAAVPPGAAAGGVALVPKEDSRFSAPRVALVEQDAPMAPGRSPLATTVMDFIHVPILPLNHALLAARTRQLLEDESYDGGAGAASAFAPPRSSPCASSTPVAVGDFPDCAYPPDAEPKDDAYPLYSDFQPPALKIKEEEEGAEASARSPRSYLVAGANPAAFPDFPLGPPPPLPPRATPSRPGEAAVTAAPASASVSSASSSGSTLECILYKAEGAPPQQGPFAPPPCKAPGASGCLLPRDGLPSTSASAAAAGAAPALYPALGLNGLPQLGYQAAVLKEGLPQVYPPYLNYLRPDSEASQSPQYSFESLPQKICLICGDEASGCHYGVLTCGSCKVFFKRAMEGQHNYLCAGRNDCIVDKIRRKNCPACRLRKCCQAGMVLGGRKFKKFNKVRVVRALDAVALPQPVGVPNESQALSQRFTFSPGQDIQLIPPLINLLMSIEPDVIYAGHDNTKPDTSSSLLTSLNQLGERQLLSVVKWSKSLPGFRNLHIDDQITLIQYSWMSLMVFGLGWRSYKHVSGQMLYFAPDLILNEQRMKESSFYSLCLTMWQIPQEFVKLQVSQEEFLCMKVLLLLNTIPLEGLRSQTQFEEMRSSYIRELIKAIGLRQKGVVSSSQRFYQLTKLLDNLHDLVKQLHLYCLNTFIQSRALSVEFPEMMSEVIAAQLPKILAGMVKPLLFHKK

[9] = target: Cannabinoid receptor 1 (Homo sapiens, UniProt P21554); format: functional, cell-based
[10] = target: Beta-2 adrenergic receptor (Homo sapiens, UniProt P07550)
[11] = target: T5, Gastrin/cholecystokinin type B receptor (Homo sapiens, UniProt P32239)
T5 sequence (P32239 whole entry): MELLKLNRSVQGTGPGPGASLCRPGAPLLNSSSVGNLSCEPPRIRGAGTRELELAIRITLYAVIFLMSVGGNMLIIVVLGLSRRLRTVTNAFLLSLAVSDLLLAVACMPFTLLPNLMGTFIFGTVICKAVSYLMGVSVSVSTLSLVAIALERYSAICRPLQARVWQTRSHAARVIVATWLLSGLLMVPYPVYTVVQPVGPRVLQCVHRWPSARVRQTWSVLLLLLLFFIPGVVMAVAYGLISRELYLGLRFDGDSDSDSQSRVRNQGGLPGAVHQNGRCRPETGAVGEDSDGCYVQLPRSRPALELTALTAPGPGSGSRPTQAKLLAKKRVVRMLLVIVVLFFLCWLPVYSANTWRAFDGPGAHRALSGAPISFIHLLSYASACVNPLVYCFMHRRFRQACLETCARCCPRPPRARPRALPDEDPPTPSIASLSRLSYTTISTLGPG
Further: assay procedure not described here.

Sequence of Cannabinoid receptor 1 (P21554 whole entry): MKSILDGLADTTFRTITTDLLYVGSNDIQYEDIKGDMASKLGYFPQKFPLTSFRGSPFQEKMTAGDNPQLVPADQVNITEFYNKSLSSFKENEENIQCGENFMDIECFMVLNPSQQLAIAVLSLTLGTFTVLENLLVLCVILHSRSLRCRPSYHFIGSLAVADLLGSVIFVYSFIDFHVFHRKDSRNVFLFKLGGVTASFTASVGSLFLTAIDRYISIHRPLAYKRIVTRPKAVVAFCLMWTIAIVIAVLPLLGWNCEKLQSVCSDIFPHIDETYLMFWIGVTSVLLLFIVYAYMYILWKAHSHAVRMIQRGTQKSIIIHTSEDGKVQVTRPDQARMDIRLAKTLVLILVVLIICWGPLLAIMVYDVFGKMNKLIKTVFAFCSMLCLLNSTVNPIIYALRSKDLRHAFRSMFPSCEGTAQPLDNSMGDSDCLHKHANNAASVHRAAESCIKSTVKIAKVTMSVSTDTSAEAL
Sequence of Muscarinic acetylcholine receptor M3 (P20309 whole entry): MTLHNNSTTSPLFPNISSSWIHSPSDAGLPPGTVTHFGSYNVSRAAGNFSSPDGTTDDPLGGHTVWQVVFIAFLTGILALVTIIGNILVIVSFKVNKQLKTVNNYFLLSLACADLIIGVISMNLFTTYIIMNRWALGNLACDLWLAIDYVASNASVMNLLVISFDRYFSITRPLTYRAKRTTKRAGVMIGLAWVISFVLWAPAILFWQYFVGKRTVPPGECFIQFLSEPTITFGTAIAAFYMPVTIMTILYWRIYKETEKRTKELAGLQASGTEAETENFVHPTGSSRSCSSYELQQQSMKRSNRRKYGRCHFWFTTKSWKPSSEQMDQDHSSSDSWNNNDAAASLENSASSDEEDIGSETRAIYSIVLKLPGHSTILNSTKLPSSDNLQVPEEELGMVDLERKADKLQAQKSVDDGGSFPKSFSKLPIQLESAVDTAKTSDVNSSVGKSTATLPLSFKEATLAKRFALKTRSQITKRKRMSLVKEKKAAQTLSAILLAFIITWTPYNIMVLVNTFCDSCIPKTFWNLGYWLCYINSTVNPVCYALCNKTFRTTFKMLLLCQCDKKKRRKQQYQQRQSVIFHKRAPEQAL
Sequence of Histamine H3 receptor (Q9Y5N1 whole entry): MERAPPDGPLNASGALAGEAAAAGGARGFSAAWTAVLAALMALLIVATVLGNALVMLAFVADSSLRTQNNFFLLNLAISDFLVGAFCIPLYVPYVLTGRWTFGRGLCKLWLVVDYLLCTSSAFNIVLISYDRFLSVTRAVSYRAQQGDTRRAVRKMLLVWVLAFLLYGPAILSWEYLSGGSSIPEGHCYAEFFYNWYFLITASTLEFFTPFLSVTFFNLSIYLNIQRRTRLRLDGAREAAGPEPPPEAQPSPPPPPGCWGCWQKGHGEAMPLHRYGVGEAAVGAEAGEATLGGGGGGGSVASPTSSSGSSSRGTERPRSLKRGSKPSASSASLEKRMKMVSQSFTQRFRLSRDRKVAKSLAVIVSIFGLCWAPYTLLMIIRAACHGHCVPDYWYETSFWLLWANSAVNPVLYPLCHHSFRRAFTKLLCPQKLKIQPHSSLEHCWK
Sequence of Vascular endothelial growth factor receptor 2 (P35968 whole entry): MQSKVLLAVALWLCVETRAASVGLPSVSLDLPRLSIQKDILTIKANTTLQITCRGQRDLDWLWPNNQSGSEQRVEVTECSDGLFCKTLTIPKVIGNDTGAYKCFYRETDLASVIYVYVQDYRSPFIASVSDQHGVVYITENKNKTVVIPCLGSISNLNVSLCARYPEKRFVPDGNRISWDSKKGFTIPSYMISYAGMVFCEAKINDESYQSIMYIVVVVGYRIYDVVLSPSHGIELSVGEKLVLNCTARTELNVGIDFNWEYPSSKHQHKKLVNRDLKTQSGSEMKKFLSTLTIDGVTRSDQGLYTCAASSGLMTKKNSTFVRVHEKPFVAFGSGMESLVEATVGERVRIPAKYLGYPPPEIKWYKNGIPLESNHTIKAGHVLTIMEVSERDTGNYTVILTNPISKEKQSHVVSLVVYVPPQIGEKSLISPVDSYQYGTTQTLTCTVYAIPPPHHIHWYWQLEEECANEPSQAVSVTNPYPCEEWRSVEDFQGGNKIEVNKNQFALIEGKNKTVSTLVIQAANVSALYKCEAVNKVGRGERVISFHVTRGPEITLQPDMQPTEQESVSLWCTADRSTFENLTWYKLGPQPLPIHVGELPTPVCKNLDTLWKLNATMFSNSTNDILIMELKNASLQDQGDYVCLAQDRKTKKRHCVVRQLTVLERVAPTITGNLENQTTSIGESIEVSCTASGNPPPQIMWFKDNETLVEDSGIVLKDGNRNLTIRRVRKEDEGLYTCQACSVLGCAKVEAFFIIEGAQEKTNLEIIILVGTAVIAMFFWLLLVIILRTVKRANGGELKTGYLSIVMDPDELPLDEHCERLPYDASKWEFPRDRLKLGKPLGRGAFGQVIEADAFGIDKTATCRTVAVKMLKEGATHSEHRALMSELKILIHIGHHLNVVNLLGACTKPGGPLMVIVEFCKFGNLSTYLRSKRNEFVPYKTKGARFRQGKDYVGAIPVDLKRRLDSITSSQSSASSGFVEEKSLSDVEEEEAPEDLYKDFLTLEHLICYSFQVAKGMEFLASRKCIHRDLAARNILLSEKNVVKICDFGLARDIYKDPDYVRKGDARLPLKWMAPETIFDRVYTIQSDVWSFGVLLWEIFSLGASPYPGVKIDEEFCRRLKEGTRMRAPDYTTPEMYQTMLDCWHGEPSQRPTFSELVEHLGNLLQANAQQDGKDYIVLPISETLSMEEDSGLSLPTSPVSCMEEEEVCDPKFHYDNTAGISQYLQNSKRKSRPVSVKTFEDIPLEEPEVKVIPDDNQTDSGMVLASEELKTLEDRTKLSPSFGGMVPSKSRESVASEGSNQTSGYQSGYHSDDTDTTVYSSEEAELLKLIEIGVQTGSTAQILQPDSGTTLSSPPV
Sequence of Beta-2 adrenergic receptor (P07550 whole entry): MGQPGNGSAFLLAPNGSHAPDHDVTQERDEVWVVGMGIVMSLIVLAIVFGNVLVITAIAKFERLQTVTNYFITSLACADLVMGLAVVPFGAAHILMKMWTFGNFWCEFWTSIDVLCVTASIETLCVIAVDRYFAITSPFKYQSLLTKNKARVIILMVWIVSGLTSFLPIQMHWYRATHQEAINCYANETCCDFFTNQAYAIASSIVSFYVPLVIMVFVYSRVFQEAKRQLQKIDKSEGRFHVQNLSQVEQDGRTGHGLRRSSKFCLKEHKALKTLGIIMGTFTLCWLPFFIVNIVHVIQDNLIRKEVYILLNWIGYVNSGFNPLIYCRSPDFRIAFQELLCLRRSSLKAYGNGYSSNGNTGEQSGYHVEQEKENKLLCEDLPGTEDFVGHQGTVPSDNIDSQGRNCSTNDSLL

| SMILES | AC50 [1] | AC50 [2] | AC50 [3] | AC50 [4] | AC50 [5] | AC50 [6] | AC50 [7] | AC50 [8] | AC50 [9] | AC50 [10] | AC50 [11] |
| --- | --- | --- | --- | --- | --- | --- | --- | --- | --- | --- | --- |
| Cc1ccc(C(C)C)c(O)c1 [THYMOL] | > 30 µM | > 30 µM | > 30 µM | > 30 µM |  |  |  |  |  |  |  |
| OC[C@H]1NC[C@H](O)[C@@H](O)[C@H]1O | > 30 µM | > 30 µM | > 30 µM | > 30 µM |  |  |  |  |  |  |  |
| CNC1(c2ccccc2Cl)CCCCC1=O (centres undefined) [KETAMINE] | > 30 µM | > 30 µM | > 30 µM | > 30 µM |  |  |  |  |  |  |  |
| CCN(CC)CCn1c(=O)c(Cc2ccc(OC)cc2)nc2ccccc21 [CAROVERINE] |  |  |  |  | > 30 µM | > 30 µM | > 30 µM | > 30 µM | > 30 µM | > 30 µM | > 30 µM |
| CN1CCN(C(c2ccccc2)c2ccc(Cl)cc2)CC1 (centres undefined) [CHLORCYCLIZINE] | > 30 µM | > 30 µM |  | 15.8 µM |  |  |  |  |  |  |  |
| N[C@@H](Cc1cc(I)c(Oc2cc(I)c(O)c(I)c2)c(I)c1)C(=O)O [LEVOTHYROXINE] |  |  |  |  | > 30 µM | > 30 µM | > 30 µM | 8.7 µM | > 30 µM |  | > 30 µM |
| O=P1(N(CCCl)CCCl)NCCCO1 (centres undefined) [CYCLOPHOSPHAMIDE ANHYDROUS] | > 30 µM | > 30 µM | > 30 µM | > 30 µM |  |  |  |  |  |  |  |
| CN(C)CCc1c[nH]c2ccc(CS(=O)(=O)N3CCCC3)cc12 [ALMOTRIPTAN] |  |  |  |  | > 30 µM | > 30 µM |  | > 30 µM | > 30 µM |  | > 30 µM |
| O=C(O)[C@H](O)[C@@H](O)[C@H](O)[C@H](O)CO [GLUCONIC ACID] | > 30 µM | > 30 µM | > 30 µM | > 30 µM |  |  |  |  |  |  |  |
| CC#CC(=O)N1CCC[C@H]1c1nc(-c2ccc(C(=O)Nc3ccccn3)cc2)c2c(N)nccn12 [ACALABRUTINIB] | > 30 µM | 2.01 µM | > 30 µM | > 30 µM |  |  |  |  |  |  |  |
| CC[N+](CC)(CCNC(=O)C(=O)NCC[N+](CC)(CC)Cc1ccccc1Cl)Cc1ccccc1Cl [AMBENONIUM] |  |  |  |  | > 30 µM | 1.1 µM |  | > 30 µM | > 30 µM |  | > 30 µM |
| CC(=O)NC[C@H]1CN(c2ccc(N3CCOCC3)c(F)c2)C(=O)O1 [LINEZOLID] |  |  |  |  | > 30 µM | > 30 µM | > 30 µM | > 30 µM | > 30 µM |  | > 30 µM |
| CN1CCC(N(Cc2cccs2)c2ccccc2)CC1 [THENALIDINE] | > 30 µM | > 30 µM | > 30 µM | > 30 µM |  |  |  |  |  |  |  |
| N=C(N)NCC1COc2ccccc2O1 (centres undefined) [GUANOXAN] | > 30 µM | > 30 µM | 19.9 µM | > 30 µM |  |  |  |  |  |  |  |
